Tests used:
Assay type in all cases: in vivo
SEBEX = experiment: Preemergence field trial in seeded rice, % visual weed control; conditions: 22 to 54 days after application
Experimental: (§1) Field trials were conducted in rice and tree crops using standard herbicide small plot research methodology. Plot size was typical for small plot research, varying from 2 to 4 meters (m) wide by 6.7 to 10 meters long. There were 3 to 4 replicates per treatment. Soil types ranged from medium to fine soil texture. Rice or cereal crops were sown by mechanical direct dry seeding as per normal local cultural practices. The rice or cereal crop was grown using normal cultural practices for fertilization, watering, flooding and maintenance to ensure good growth of the crop and the weeds.
(§2) Treatments were applied by backpack sprayer using either compressed air or CO2, at spray pressures from 124 to 276 kilopascals (kPa). Spray tips were typically Flat Fan Teejet nozzles, such as TJ8002 to TJ110015 or XR11001. Spray volumes varied from 93.5 to 250 liters per hectare (L/ha). Penoxsulam was applied as the commercial products Grasp SC (240 gr ai/L) or Clipper 20 OD (20 grams ai/L); pendimethalin was applied as the commercial product Prowl EC.
(§3) For each treatment, the appropriate formulated product amount to treat the plot area, to achieve the desired application rate, based on unit area of application (hectare), was calculated, measured, and mixed in water prior to applying with the backpack sprayer. Treatments were rated as compared to the untreated control plots.
(§4) The treated plots and control plots were rated blind at various intervals after application. Ratings were based of Percent (%) Visual weed control, where 0 corresponds to no injury and 100 corresponds to complete kill.
(§5) Colby's equation was used to determine the herbicidal effects expected from the mixtures (Colby, S. R. Calculation of the synergistic and antagonistic response of herbicide combinations. Weeds 1967, 15, 20-22).
(§6) The following equation was used to calculate the expected activity of mixtures containing two active ingredients, A and B:
(§7) A=observed efficacy of active ingredient A at the same concentration as used in the mixture;
(§8) B=observed efficacy of active ingredient B at the same concentration as used in the mixture.

[1] = system: Ipomoea spp. (morningglory); experiment: as above; conditions: Texas, USA, 22 to 54 days after application
Experimental: as §1, §2, §3, §4, §5, §6, §7, §8

[2] = system: Ischaemum rugosum (saramollagrass); experiment: as above; conditions: 60 days after application
Experimental: as §1, §2, §3, §4, §5, §6, §7, §8

[3] = system: Echinochloa colonum (junglerice); experiment: as above; conditions: 60 days after application
Experimental: as §1, §2, §3, §4, §5, §6, §7, §8

[4] = system: Alternanthera philoxeroides (alligatorweed); experiment: as above; conditions: USA, 22 to 54 days after application
Experimental: as §1, §2, §3, §4, §5, §6, §7, §8

[5] = system: Alopecurus myosuroides (blackgrass); experiment: Preemergence field trial in perennial tree crops, % weed control; conditions: 206 days after application
Experimental: as §1, §2, §3, §4, §5, §6, §7, §8

Structure (SMILES) | % Visual Control SEBEX Obs (SEBEX; pendimethalin 1100 gai/ha) | % Visual Control IPOSS Obs ([1]; pendimethalin 1100 gai/ha) | % Visual Control ISCRU Obs ([2]; pendimethalin 750 gai/ha) | % Visual Control ECHCO Obs ([3]; pendimethalin 750 gai/ha) | % Visual Control ALRPH Obs ([4]; pendimethalin 1100 gai/ha, Arkansas) | % Visual Control ALRPH Obs ([4]; pendimethalin 1100 gai/ha, Texas) | % Control ALOMY Obs ([5]; pendimethalin 500 gai/ha) | % Control ALOMY Obs ([5]; pendimethalin 1000 gai/ha) | % Visual Control SEBEX Obs (SEBEX; penoxsulam 40 gai/ha) | % Visual Control IPOSS Obs ([1]; penoxsulam 20 gai/ha) | % Visual Control ISCRU Obs ([2]; penoxsulam 30 gai/ha) | % Visual Control ECHCO Obs ([3]; penoxsulam 20 gai/ha) | % Visual Control ALRPH Obs ([4]; penoxsulam 20 gai/ha, Arkansas) | % Visual Control ALRPH Obs ([4]; penoxsulam 20 gai/ha, Texas) | % Control ALOMY Obs ([5]; penoxsulam 10 gai/ha) | % Control ALOMY Obs ([5]; penoxsulam 20 gai/ha) | % Control ALOMY Obs ([5]; penoxsulam 30 gai/ha) | % Control ALOMY Obs ([5]; penoxsulam 40 gai/ha)
CCC(CC)Nc1c([N+](=O)[O-])cc(C)c(C)c1[N+](=O)[O-] [Pendimethalin, N-(1-ethylpropyl)-3,4-dimethyl-2,6-dinitrobenzenamine] | 14% | 35% | 57% | 55% | 0% | 0% | 0% | 7% | – | – | – | – | – | – | – | – | – | –
COc1cnc(OC)n2nc(NS(=O)(=O)c3c(OCC(F)F)cccc3C(F)(F)F)nc12 [Penoxsulam] | – | – | – | – | – | – | – | – | 40% | 21% | 35% | 25% | 43% | 74% | 0% | 20% | 43% | 50%

From patent publication US20120329653A1, “SYNERGISTIC HERBICIDAL COMPOSITION CONTAINING PENOXSULAM AND PENDIMETHALIN” (DOW AGROSCIENCES LLC, priority 2011, published 2012)
